PubChem BioAssay AID2060350 (Molecular Pharmacology Branch, DTP, NCI, 2025)

Tested on: PDC 521955-158-R6-J3 spheroids, viability
Assay: Anticancer human tumor 521955-158-R6-J3-PDC patient-derived pancreatic carcinoma cell line growth inhibition [TAK]
Conditions: spheroids with HUVEC and MSC; for IC50: curve of first compound; for viability, T/C: stronger effect = lower value
Description: Combinatorial screen of targeted agents with TAK-243 and ipatasertib in multi-cell type tumor spheroids
A high-throughput screen of multi-cell type tumor spheroids was designed to identify active combinations of targeted small molecules and TAK-243 or ipatasertib. Complex spheroids include a stromal component modeled by human endothelial cells (HUVEC) and fibroblasts modeled by human mesenchymal stem cells (MSCs). The concentration ranges selected for each drug and investigational agent were based upon clinically achievable concentrations if the clinical Cmax of the agent was known.
Compounds. The drugs and investigational agents: TAK-243 (785004), ipatasertib (767898), everolimus (733504), selumetinib (741078), bortezomib (756655), trametinib (758246), ixazomib (758254), vemurafenib (761431), dabrafenib (764134), sapanisertib (764658), alpelisib (765974), and copanlisib (816437), were obtained from the National Cancer Institute (NCI) Developmental Therapeutics Program Chemical Repository. The FDA-approved anticancer drug set is available from the NCI Developmental Therapeutics Program. […] The stock solutions were prepared in dimethyl sulfoxide (DMSO, Sigma-Aldrich, St. Louis, MO, cat. D2650) at 800-fold the tested concentration and stored at -70 degrees C prior to their use. All drugs and investigational agents were tested over a range starting from a high concentration at or near the clinical Cmax and decreasing in half-log increments. If the clinical Cmax for an agent had not been determined, the highest concentration tested was 10 microM.
NCI60 Cell Culture. NCI60 cell lines were obtained from the NCI Developmental Therapeutics Program Tumor Repository. For each lot of cells, the Repository performed Applied Biosystems AmpFLSTR Identifiler testing with PCR amplification to confirm consistency with the published Identifier STR profile for each cell line. Cells were kept in continuous culture for no more than 20 passages. The optimal seeding densities for each of the cell lines at each time point assessed were determined prior to performing the concentration response studies. Briefly, the NCI60 human tumor lines were grown as monolayers in RPMI 1640 medium supplemented with 10% FBS and 2 mmol/L L-glutamine.
An additional 2 lines were from the NCI60 cell line panel including melanomas, MALME-3M and SK-MEL-2. Pooled donor human umbilical vein endothelial cells (HUVEC, Lonza, cat. CC-2519) and human mesenchymal stem cells (hMSC, Lonza, cat. PT-2501) were purchased from Lonza (Walkersville, MD).
PDMR cell lines were grown in complete medium (DC medium): Dulbecco's modified Eagle's medium (DMEM)/F12 supplemented with 5% fetal bovine serum (FBS), 2 mM L-glutamine, 100 U/mL penicillin and 100 µg/ml streptomycin, 0.4 µg/ml hydrocortisone, 10 ng/ml epidermal growth factor (EGF) recombinant human protein, 24 µg/mL adenine, and 0.1 mg/mL primocin. During culture from frozen stock vials, PDMR cells were cultured in the same medium containing 10 µM Y-27632 (see Table 3). The PDCs were cultured in complete DMEM/F12 media without 10 microM Y-27632 dihydrochloride for at least two passages prior to the screen. The pooled donor HUVEC and hMSC were cultured in endothelial cell growth medium 2 (PromoCell, Heidelberg, Germany, cat. C-22011) and mesenchymal stem cell growth medium 2 (PromoCell, cat. C-28009), respectively. For all experiments, HUVEC and hMSC were used at passages </=5.
For the pre-screen, cell seeding densities were determined from a titration spanning the range from 5,000 to 313 cells per well. The mct-spheroids including 60% malignant cells, 25% HUVEC and 15% MSC dispensed as a mixture into U-bottom Ultra-Low Attachment 384-well plates (Corning, NY)
High-throughput Drug Combination Screening.
Prior to their inoculation into 384-well plates, malignant cells, HUVEC, and hMSC were removed from T flasks using TrypLE express (Thermo Fisher Scientific, cat. 12605036) and harvested by centrifugation for 5 min at 233 x g. […]
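Further: spheroids exposed to drugs for 7 days before readout.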
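Wherever viability, T/C is given: 100% = DMSO vehicle control viability.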

COC1CC2CCC(C)C(O)(O2)C(=O)C(=O)N2CCCCC2C(=O)OC(C(C)CC2CCC(OCCO)C(OC)C2)CC(=O)C(C)C=C(C)C(O)C(OC)C(=O)C(C)CC(C)C=CC=CC=C1C (stereo not given) + CC(C)NCC(C(=O)N1CCN(c2ncnc3c2C(C)CC3O)CC1)c1ccc(Cl)cc1
IC50 (second compound 0.3 µM): > 100 nM | IC50 (second compound 0.949 µM): > 100 nM | IC50 (second compound 3 µM): > 100 nM | IC50 (second compound 9.49 µM): > 100 nM | IC50 (second compound 30 µM): > 100 nM | viability, T/C (second compound 0.3 µM, first compound 0.000316 µM): 98.5% | viability, T/C (second compound 0.3 µM, first compound 0.001 µM): 93% | viability, T/C (second compound 0.3 µM, first compound 0.00316 µM): 97% | viability, T/C (second compound 0.3 µM, first compound 0.01 µM): 96.4% | viability, T/C (second compound 0.3 µM, first compound 0.0316 µM): 102% | viability, T/C (second compound 0.3 µM, first compound 0.1 µM): 81.1% | viability, T/C (second compound 0.949 µM, first compound 0.000316 µM): 95.8% | viability, T/C (second compound 0.949 µM, first compound 0.001 µM): 89.6% | viability, T/C (second compound 0.949 µM, first compound 0.00316 µM): 99.1% | viability, T/C (second compound 0.949 µM, first compound 0.01 µM): 102% | viability, T/C (second compound 0.949 µM, first compound 0.0316 µM): 91.3% | viability, T/C (second compound 0.949 µM, first compound 0.1 µM): 78% | viability, T/C (second compound 3 µM, first compound 0.000316 µM): 96.5% | viability, T/C (second compound 3 µM, first compound 0.001 µM): 78.3% | viability, T/C (second compound 3 µM, first compound 0.00316 µM): 85.8% | viability, T/C (second compound 3 µM, first compound 0.01 µM): 89.1% | viability, T/C (second compound 3 µM, first compound 0.0316 µM): 73.7% | viability, T/C (second compound 3 µM, first compound 0.1 µM): 63.3% | viability, T/C (second compound 9.49 µM, first compound 0.000316 µM): 86.2% | viability, T/C (second compound 9.49 µM, first compound 0.001 µM): 67.7% | viability, T/C (second compound 9.49 µM, first compound 0.00316 µM): 65% | viability, T/C (second compound 9.49 µM, first compound 0.01 µM): 74.8% | viability, T/C (second compound 9.49 µM, first compound 0.0316 µM): 76.8% | viability, T/C (second compound 9.49 µM, first compound 0.1 µM): 58.4% | viability, T/C (second compound 30 µM, first compound 0.000316 µM): 81.8% | viability, T/C (second compound 30 µM, first compound 0.001 µM): 59.6% | viability, T/C (second compound 30 µM, first compound 0.00316 µM): 55.9% | viability, T/C (second compound 30 µM, first compound 0.01 µM): 62.8% | viability, T/C (second compound 30 µM, first compound 0.0316 µM): 56% | viability, T/C (second compound 30 µM, first compound 0.1 µM): 48.4%

Cn1cnc2c(F)c(Nc3ccc(Br)cc3Cl)c(C(=O)NOCCO)cc21 + CC(C)NCC(C(=O)N1CCN(c2ncnc3c2C(C)CC3O)CC1)c1ccc(Cl)cc1
IC50 (second compound 0.3 µM): 326 nM | IC50 (second compound 0.949 µM): 176 nM | IC50 (second compound 3 µM): 324 nM | IC50 (second compound 9.49 µM): 141 nM | IC50 (second compound 30 µM): 186 nM | viability, T/C (second compound 0.3 µM, first compound 0.00949 µM): 66.8% | viability, T/C (second compound 0.3 µM, first compound 0.03 µM): 60.1% | viability, T/C (second compound 0.3 µM, first compound 0.0949 µM): 54.6% | viability, T/C (second compound 0.3 µM, first compound 0.3 µM): 47.5% | viability, T/C (second compound 0.3 µM, first compound 0.949 µM): 51.8% | viability, T/C (second compound 0.3 µM, first compound 3 µM): 38.9% | viability, T/C (second compound 0.949 µM, first compound 0.00949 µM): 69.6% | viability, T/C (second compound 0.949 µM, first compound 0.03 µM): 58.4% | viability, T/C (second compound 0.949 µM, first compound 0.0949 µM): 48.3% | viability, T/C (second compound 0.949 µM, first compound 0.3 µM): 49.7% | viability, T/C (second compound 0.949 µM, first compound 0.949 µM): 43.8% | viability, T/C (second compound 0.949 µM, first compound 3 µM): 25.7% | viability, T/C (second compound 3 µM, first compound 0.00949 µM): 68.2% | viability, T/C (second compound 3 µM, first compound 0.03 µM): 60.9% | viability, T/C (second compound 3 µM, first compound 0.0949 µM): 52.4% | viability, T/C (second compound 3 µM, first compound 0.3 µM): 51.8% | viability, T/C (second compound 3 µM, first compound 0.949 µM): 43% | viability, T/C (second compound 3 µM, first compound 3 µM): 21.6% | viability, T/C (second compound 9.49 µM, first compound 0.00949 µM): 66.8% | viability, T/C (second compound 9.49 µM, first compound 0.03 µM): 55.7% | viability, T/C (second compound 9.49 µM, first compound 0.0949 µM): 47.8% | viability, T/C (second compound 9.49 µM, first compound 0.3 µM): 49.5% | viability, T/C (second compound 9.49 µM, first compound 0.949 µM): 33.9% | viability, T/C (second compound 9.49 µM, first compound 3 µM): 15.8% | viability, T/C (second compound 30 µM, first compound 0.00949 µM): 64.3% | viability, T/C (second compound 30 µM, first compound 0.03 µM): 56.7% | viability, T/C (second compound 30 µM, first compound 0.0949 µM): 49.6% | viability, T/C (second compound 30 µM, first compound 0.3 µM): 50.1% | viability, T/C (second compound 30 µM, first compound 0.949 µM): 35.8% | viability, T/C (second compound 30 µM, first compound 3 µM): 15.1%
